# Columns and labels:
# [1] = system: human neonatal fibroblasts; test: MTT assay, noncancerous fibroblasts; format: cell-based; conditions: Homo sapiens, Fibroblast, 24 h treatment
# Experimental: (§1) The human gastric adenocarcinoma AGS, cervical cancer HeLa, and acute promyelocytic leukemia HL-60 cells were obtained from the American Type Culture Collection (ATCC, Manassas, VA, USA). Human neonatal fibroblasts were obtained from LGC Standards (Luckenwalde, Germany). The HeLa and AGS lines were cultured in Dulbecco’s modified Eagle’s medium (DMEM) and DMEM/F12 medium, respectively. The HL-60 line was maintained in RPMI-1640 medium. Fibroblasts were cultured in Fibroblast Growth Medium with Supplement Mix. All the media were supplemented with 100 units/mL of penicillin, 100 µg/mL of streptomycin, and 10% (v/v) fetal bovine serum (FBS) (Merck Millipore, Burlington, MA, USA). The cells were incubated at 37 °C and 5% CO2.
# (§2) To estimate the cytotoxic effect of the five compounds (4–8), MTT (3-(4,5-dimethylthiazol-2-yl)-2,5-diphenyltetrazolium bromide) assay was used. Oxaliplatin was used as a positive control in this test. All the cell lines were seeded in 96-well plates at a density of 5 × 10^3 cells/well and treated for 24 h with the compounds at concentrations of 0.5–40 µg/mL. Oxaliplatin was tested in the range of 20–400 µg/mL (50–1000 µM). After treatment, the cells were incubated with MTT (0.5 mg/mL; Merck Millipore, Burlington, MA, USA) for 3 h. Then, DMSO was used to dissolve formazan crystals, and the absorbance of the formazan solution was measured with a plate reader (Epoch, BioTek Instruments, Santa Clara, CA, USA). All the results (±standard deviation (SD)) were obtained from six repetitions in at least two independent experiments. The data are expressed as IC50 values (µg/mL).
# [2] = system: Escherichia coli ATCC8739; test: MIC determination; format: cell-based; conditions: 37 °C, 48 h
# Experimental: (§3) The MIC determinations for Staphylococcus epidermidis ATCC14990, Staphylococcus aureus ATCC6538, Enterococcus faecalis ATCC51299, Klebsiella pneumoniae ATCC13883, Escherichia coli ATCC8739, Salmonella enterica ATCC13076, Helicobacter pylori ATCC43504, Campylobacter jejuni ZMF, Campylobacter coli ZMF, Bacillus cereus PCM 1948,2019 (ATCC11778), and Listeria monocytogenes PCM2191 were performed based on the methodology described by Krauze-Baranowska et al.. The procedure for H. pylori was used in the experiments with Campylobacter strains, and the procedure for B. subtilis was used in the experiments with L. monocytogenes and B. cereus. The tested samples were dissolved in DMSO and diluted with water (concentration of approximately 500 μg/mL). The solutions were diluted geometrically by transferring the mixture/dilution (100 μL) from the first to the twelfth well of the microtiter plate. The final concentrations of samples used for antimicrobial effects ranged from 500 to 0.006 µg/mL. Ampicillin was used as a reference compound in the concentration range of 128 to 0.0625 µg/mL. The tests were incubated at 37 °C for 48 h. The diluent concentration had no effect on the activity of the tested compounds. All experiments were performed in triplicate.
# [3] = system: Bacillus cereus PCM 1948,2019 (ATCC11778); test: MIC determination; format: cell-based; conditions: 37 °C, 48 h
# Experimental: as §3
# [4] = system: Staphylococcus epidermidis ATCC14990; test: MIC determination; format: cell-based; conditions: 37 °C, 48 h
# Experimental: as §3
# [5] = system: Helicobacter pylori ATCC43504; test: MIC determination; format: cell-based; conditions: 37 °C, 48 h
# Experimental: as §3
# Campylobacter coli ZMF = test: MIC determination; format: cell-based; conditions: 37 °C, 48 h
# Experimental: as §3
# [6] = system: Staphylococcus aureus ATCC6538; test: MIC determination; format: cell-based; conditions: 37 °C, 48 h
# Experimental: as §3
# [7] = system: Klebsiella pneumoniae ATCC13883; test: MIC determination; format: cell-based; conditions: 37 °C, 48 h
# Experimental: as §3
# [8] = system: Enterococcus faecalis ATCC51299; test: MIC determination; format: cell-based; conditions: 37 °C, 48 h
# Experimental: as §3
# [9] = system: Listeria monocytogenes PCM2191; test: MIC determination; format: cell-based; conditions: 37 °C, 48 h
# Experimental: as §3
# [10] = system: Salmonella enterica ATCC13076; test: MIC determination; format: cell-based; conditions: 37 °C, 48 h
# Experimental: as §3
# Campylobacter jejuni ZMF = test: MIC determination; format: cell-based; conditions: 37 °C, 48 h
# Experimental: as §3
# [11] = β-Carotene bleaching test; conditions: compared to ascorbic acid
# Experimental: β-Carotene bleaching test was based on the method described by Olszowy et al. with some modifications. First, 1 mg of β-carotene was dissolved in 5 mL of chloroform. Afterwards, […] of linoleic acid and 200 mg of Tween 40 were added. The chloroform was evaporated, and 50 mL of oxygenized water was added. The created emulsion was mixed with different concentrations of chalcone derivatives. β-carotene bleaching was analyzed at λ = 492 nm before (t = 0 min) and after 90 min (t = 90 min) of incubation at 50 °C (Epoch, BioTek Instruments, Santa Clara, CA, USA). Ascorbic acid was used as a standard. The control was composed of emulsion and DMSO.
# The results were calculated according to the following Formula (4):[(AsampleT0 − AsampleT90)/(AcontrolT0 − AcontrolT90) × 100%(4)
# [12] = system: cancer cells (HeLa, HL-60, AGS); test: MTT assay, cancer cells taken together; format: cell-based, human; conditions: HL-60 and AGS together
# Experimental: as §1, §2
# [13] = system: gastric adenocarcinoma AGS; test: MTT assay, AGS cells; format: cell-based, human
# Experimental: as §1, §2
# cervical cancer HeLa = test: MTT assay, HeLa cells; format: cell-based, human
# Experimental: as §1, §2
# neutrophil elastase = target: T1, neutrophil elastase (Sus scrofa, UniProt P00772); test: Elastase assay (SANA substrate); format: biochemical, porcine; conditions: Tris-HCl pH 8.0, SANA substrate; read-out: neutrophil elastase inhibition IC50 (converted)
# T1 construct: purchased Sigma Chemical Co. (St. Louis, MO, USA)
# Experimental: The elastase analysis was performed according to the spectrophotometric method with oleanolic acid as a reference. The reaction mixture (Tris-HCl buffer (pH 8.0), 1.0 μg/mL porcine pancreatic elastase, and different concentrations of chalcone derivatives was preincubated at room temperature for 15 min. Afterwards, the addition of the substrate—SANA—started the reaction. Product formation changes were analyzed at λ = 410 nm for 20 min every 20 s (Epoch, BioTek Instruments, Santa Clara, CA, USA). The control was composed of Tris-HCl buffer (pH 8.0), an appropriate concentration of the chalcone derivative, and SANA.
# [14] = system: acute promyelocytic leukemia HL-60; test: MTT assay, HL-60 cells; format: cell-based, human
# Experimental: as §1, §2
# [15] = DPPH radical scavenging assay; conditions: concentration of 800 µg/mL
# Experimental: The DPPH radical scavenging assay of samples (ligands or complexes) was performed with ascorbic acid as a standard. Different concentrations of chalcone derivatives, dissolved in DMSO, were mixed with the same amount of 0.06 mM DPPH methanolic solution and incubated at room temperature in the dark for 30 min. The absorbance was analyzed at λ = 517 nm using a 96-well microplate reader (Epoch, BioTek System, Winooski, VT, USA). The control was composed of DPPH and DMSO. DPPH inhibition was calculated according to the following Formula (2):DPPH Inhibition (%) = [(Acontrol − Asample)/Acontrol] × 100%(2)
# [16] = SI = IC50 noncancer cells/IC50 cancer cells, in relation to human neonatal fibroblasts
# T1 sequence (P00772 27-266): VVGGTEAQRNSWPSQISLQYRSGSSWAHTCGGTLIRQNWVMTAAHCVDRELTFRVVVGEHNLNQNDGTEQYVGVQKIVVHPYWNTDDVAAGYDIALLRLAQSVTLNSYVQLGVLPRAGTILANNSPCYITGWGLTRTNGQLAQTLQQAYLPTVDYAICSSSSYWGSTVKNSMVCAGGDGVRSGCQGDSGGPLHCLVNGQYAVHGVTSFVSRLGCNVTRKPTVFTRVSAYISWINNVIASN
MIC [2] [µg/mL],MIC [3] [µg/mL],MIC [4] [µg/mL],MIC [5] [µg/mL],MIC (Campylobacter coli ZMF) [µg/mL],MIC [6] [µg/mL],MIC [7] [µg/mL],MIC [8] [µg/mL],MIC [9] [µg/mL],MIC [10] [µg/mL],MIC (Campylobacter jejuni ZMF) [µg/mL],SMILES,also measured
> 500,> 500,> 500,> 500,> 500,> 500,> 500,> 500,> 500,> 500,> 500,"Cc1cc(S(=O)(=O)Nc2ccc(C(=O)/C=C/c3ccccc3)cc2)c(Cl)cc1Cl [Compound 4, (E)-2,4-Dichloro-N-(4-Cinnamoylphenyl)-5-Methylbenzenesulfonamide]","IC50 [1]: 32.1 ± 2.91 µg/mL; protection of lipids oxidation / reduction of lipid peroxidation (in words) [11]: weaker properties; IC50 toward cancer cells [12]: weaker activity; IC50 ([13]; Homo sapiens, AGS, 24 h, MTT, 24 h treatment): 1.23 ± 0.23 µg/mL; selectivity index AGS [13, 16]: 26.14; IC50 (cervical cancer HeLa; Homo sapiens, HeLa, MTT, 24 h treatment): 9.63 ± 0.06 µg/mL; selectivity index HeLa (cervical cancer HeLa; [16]): 3.34; IC50 (neutrophil elastase): 119 µM; IC50 ([14]; Homo sapiens, HL-60, 24 h, MTT, 24 h treatment): 2.37 ± 0.23 µg/mL; selectivity index HL-60 [14, 16]: 13.57; % of DPPH radical inhibition [15]: 19.49 ± 0.38%"
3.9,125,0.312,3.2,16,0.08,62.5,0.16,16,0.5,32,"CC1(C)S[C@@H]2[C@H](NC(=O)[C@H](N)c3ccccc3)C(=O)N2[C@H]1C(=O)O [ampicillin, reference compound]",

# From paper PMC10778824, “New Chalcone Derivatives Containing 2,4-Dichlorobenzenesulfonamide Moiety with Anticancer and Antioxidant Properties” (International Journal of Molecular Sciences, 2023)
